According to patent US10426752B2, “Menthol-derivative compounds and use thereof as oral and systemic active agents” (priority 2009, dated 2019):
Converted amounts (≈) assume the structure as drawn. Where two headings read alike, the source gives them in different places.

What was measured:
[1] = Artificial mouth model (anti-microbial efficacy); conditions: FIG. 5
IL-1b = assay: 5-plex assay by using Luminex: IL-1b; assay type: cell-based; conditions: pure compounds
Source text: (§1) The menthol-derivative compound of the present invention was further evaluated in 5-plex assay by using luminex.

[2] = Lipid peroxides assay (anti-oxidant activity); assay type: biochemical; conditions: in simple solution, FIG. 2
Method: The anti-oxidant activity was determined using the lipid peroxidases assay (Kamiaya Biomedical Co., Seattle, Wash.) which is a colorimetric method that measures reduction of cumene hydroperoxide radicals.
(§2) The bacterial anti-attachment activity of a selected radical of menthol carbonate/carbamate derivatives of the present invention was investigated using the crystal violate assay (SOP No. ATO-5345-00) in a 384-well plate over a 0.0004-2500 ppm concentration range. The anti-oxidant activity of the menthol carbonate/carbamate derivatives of the present invention was determined using the lipid peroxides assay (Kamiaya Biomedical Co., Seattle, Wash.) which is a colorimetric method that measures reduction of cumene hydroperoxide radicals. The anti-microbial test was performed according to the SOP No. ATO-5308-00 for determination of Minimal Inhibitory Concentration (MIC). The anti-inflammatory test was carried out according to SOP No. ATO-5307-00 measuring the percent inhibition of PGE2.

A.v = assay: Minimal Inhibitory Concentration (MIC) test, SOP No. ATO-5308-00; assay type: cell-based; conditions: for MIC: read-out: MIC (against A.v)
Method: The anti-microbial test was measured according to the SOP No. ATO-5308-00 for determination of Minimal Inhibitory Concenctration (MIC).
as §2

GM-CSF = assay: 5-plex assay by using Luminex: GM-CSF; assay type: cell-based; conditions: pure compounds
Source text: as §1

PGE2 = PGE2 assay (anti-inflammatory test, SOP No. ATO-5307-00); assay type: cell-based
Method: The anti-inflammation test was carried out according to SOP No. ATO-5307-00 measuring the percent inhibition of PGE2.
as §2
The anti-inflammatory activity of 2-isopropyl-5-methylcyclohexyl 2-hydroxyphenyl carbamate was tested in PGE2 assay and compared to Triclosan.

IL-6 = assay: 5-plex assay by using Luminex: IL-6; assay type: cell-based; conditions: for IL-6 (reduction of untreated control): pure compounds
Source text: as §1

MMP-13 mRNA = assay: Inhibition of MMP-13 mRNA expression stimulated by parathyroid hormone (PTH); assay type: cell-based; conditions: PTH for 4 hours, FIG. 4
Method: The anti-MMP-13 activity was determined by measuring the inhibition of MMP-13 mRNA expression that is stimulated by parathyroid hormone (PTH).

TNF-α = assay: 5-plex assay by using Luminex: TNF-α; assay type: cell-based; conditions: for TNF-α (reduction of untreated control): pure compounds
Source text: as §1

Structure (SMILES)	Anti-microbial efficacy in artificial mouth model (in words) [1]	IL-1b (reduction of untreated control) (IL-1b)	Anti-oxidant efficacy (in words) [2]	Anti-microbial efficacy in MIC test (in words) (A.v)	MIC (A.v; in vitro)	GM-CSF (reduction of untreated control) (GM-CSF)	Anti-inflammatory activity in PGE2 assay (in words) (PGE2; pure compound)	IC50 (PGE2; pure compounds, PGE2 assay, read-out: IC50)	IL-6 production (in words) (IL-6; pure compound)	IL-6 (reduction of untreated control) (IL-6)	MMP-13 mRNA stimulated by parathyroid hormone (in words) (MMP-13 mRNA)	TNF-α production (in words) (TNF-α; pure compound)	TNF-α (reduction of untreated control) (TNF-α)	MIC (A.v)	IC50 (PGE2)
CC1CCC(C(C)C)C(OC(=O)Nc2ccccc2O)C1 (stereo not shown) [2-isopropyl-5-methylcyclohexyl 2-hydroxyphenyl carbamate]	good anti-microbial efficacy	13%	comparable anti-oxidant efficacy with Vitamin E	good anti-microbial efficacy	4.9 µg/mL (≈ 16.8 µM)	6%	comparable to Triclosan	380 nM	significantly inhibits	33%	significantly suppressed	significantly inhibits	81%		
Oc1cc(Cl)ccc1Oc1ccc(Cl)cc1Cl [Triclosan, 2,4,4-trichloro-2′-hydroxydiphenyl ether, reference compound]		13%				4%				37%			58%	1.9 µg/mL (≈ 6.56 µM)	480 nM
